According to patent US10654808B2, “Tyrosine kinase inhibitor and pharmaceutical composition comprising same” (GUANGDONG RAYNOVENT BIOTECH CO., LTD., priority 2015, dated 2020):

Experiments:
Calu 6 Transplant model = test: Tumor growth inhibition (TGI), Calu 6 transplant model in mice; type: in vivo; details: QD
Protocol: The evolution and growth trends of the tumor was evaluated by the relationship between tumor volume and time. The long axis (L) and short axis (W) of the subcutaneous tumor were measured twice a week by the caliper and the volume of the tumor (TV) was calculated by the formula ((L×W^2)/2). TGI was calculated by the difference between the median tumor volume of the mice in the solvent group and the median tumor volume of the mice in the drug group expressed as a percentage of the tumor volume in the solvent control group
Calculated by the following formula: % TGI=((intermediate tumor volume (control)−intermediate tumor volume (administration group))/intermediate tumor volume (control group))×100%
The original statistical analysis was performed by repeated variance analysis, and then a multiple comparisons were performed using the Scheffe psot hoc test method. Individual solvent (0.5% methylcellulose+0.2% Tween aqueous solution) was a negative control.

PDGFRB = target: T1, PDGFRB (Homo sapiens, UniProt P09619); test: Z'-LYTE in vitro enzyme activity assay, PDGFRB; type: biochemical; details: 100 μM ATP, 60 minutes, room temperature; read-out: IC50 detected by Z'-LYTE, PDGFRB
T1 construct: purchased Millipore
T1 sequence (P09619 33-1106): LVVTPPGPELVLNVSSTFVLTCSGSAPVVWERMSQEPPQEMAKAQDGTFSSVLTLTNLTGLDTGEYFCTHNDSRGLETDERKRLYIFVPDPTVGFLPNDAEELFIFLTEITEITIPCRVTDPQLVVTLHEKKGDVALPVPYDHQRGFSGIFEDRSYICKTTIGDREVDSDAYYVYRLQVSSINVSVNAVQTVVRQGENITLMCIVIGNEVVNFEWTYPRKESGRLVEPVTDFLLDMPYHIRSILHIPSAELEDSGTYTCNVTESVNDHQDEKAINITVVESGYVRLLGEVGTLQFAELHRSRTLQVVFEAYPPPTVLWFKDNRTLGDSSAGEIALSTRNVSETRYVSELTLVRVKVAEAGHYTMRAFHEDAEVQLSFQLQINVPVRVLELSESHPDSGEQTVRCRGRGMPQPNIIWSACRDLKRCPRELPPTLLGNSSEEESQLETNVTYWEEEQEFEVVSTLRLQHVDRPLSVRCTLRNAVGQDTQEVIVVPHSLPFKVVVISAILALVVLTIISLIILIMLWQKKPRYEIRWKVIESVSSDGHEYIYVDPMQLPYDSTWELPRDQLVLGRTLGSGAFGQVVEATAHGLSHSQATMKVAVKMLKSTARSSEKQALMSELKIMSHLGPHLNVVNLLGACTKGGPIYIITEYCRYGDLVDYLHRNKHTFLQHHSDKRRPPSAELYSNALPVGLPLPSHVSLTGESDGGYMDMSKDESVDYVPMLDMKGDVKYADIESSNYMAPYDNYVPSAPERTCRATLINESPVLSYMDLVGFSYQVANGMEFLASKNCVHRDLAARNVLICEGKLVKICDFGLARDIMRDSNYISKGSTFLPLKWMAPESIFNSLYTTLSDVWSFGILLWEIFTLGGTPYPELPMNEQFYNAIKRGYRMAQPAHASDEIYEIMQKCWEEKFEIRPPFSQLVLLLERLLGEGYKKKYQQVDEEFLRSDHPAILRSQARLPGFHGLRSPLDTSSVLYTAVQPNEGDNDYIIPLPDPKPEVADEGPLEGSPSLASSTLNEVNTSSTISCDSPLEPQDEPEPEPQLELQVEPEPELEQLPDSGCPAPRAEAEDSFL
Procedure, shortened: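 Z′-LYTE FRET kinase assay using 40 nM PDGFRB, 2 μM Tyr4 peptide and 100 μM ATP in HEPES pH 7.5 with Mg2+/Mn2+ and 1% DMSO. The reaction ran 60 min at room temperature, followed by development for 60 min at 23 °C. IC50 values came from 4-parameter fits over 11 concentrations (10 μM–0.17 nM).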

VEGFR2 = target: T2, VEGFR2 (Homo sapiens, UniProt P35968); test: Z'-LYTE in vitro enzyme activity assay, VEGFR2; type: biochemical; details: 100 μM ATP, 60 minutes, room temperature; read-out: IC50 detected by Z'-LYTE, VEGFR2
T2 construct: purchased Life technology
T2 sequence (P35968 20-1356): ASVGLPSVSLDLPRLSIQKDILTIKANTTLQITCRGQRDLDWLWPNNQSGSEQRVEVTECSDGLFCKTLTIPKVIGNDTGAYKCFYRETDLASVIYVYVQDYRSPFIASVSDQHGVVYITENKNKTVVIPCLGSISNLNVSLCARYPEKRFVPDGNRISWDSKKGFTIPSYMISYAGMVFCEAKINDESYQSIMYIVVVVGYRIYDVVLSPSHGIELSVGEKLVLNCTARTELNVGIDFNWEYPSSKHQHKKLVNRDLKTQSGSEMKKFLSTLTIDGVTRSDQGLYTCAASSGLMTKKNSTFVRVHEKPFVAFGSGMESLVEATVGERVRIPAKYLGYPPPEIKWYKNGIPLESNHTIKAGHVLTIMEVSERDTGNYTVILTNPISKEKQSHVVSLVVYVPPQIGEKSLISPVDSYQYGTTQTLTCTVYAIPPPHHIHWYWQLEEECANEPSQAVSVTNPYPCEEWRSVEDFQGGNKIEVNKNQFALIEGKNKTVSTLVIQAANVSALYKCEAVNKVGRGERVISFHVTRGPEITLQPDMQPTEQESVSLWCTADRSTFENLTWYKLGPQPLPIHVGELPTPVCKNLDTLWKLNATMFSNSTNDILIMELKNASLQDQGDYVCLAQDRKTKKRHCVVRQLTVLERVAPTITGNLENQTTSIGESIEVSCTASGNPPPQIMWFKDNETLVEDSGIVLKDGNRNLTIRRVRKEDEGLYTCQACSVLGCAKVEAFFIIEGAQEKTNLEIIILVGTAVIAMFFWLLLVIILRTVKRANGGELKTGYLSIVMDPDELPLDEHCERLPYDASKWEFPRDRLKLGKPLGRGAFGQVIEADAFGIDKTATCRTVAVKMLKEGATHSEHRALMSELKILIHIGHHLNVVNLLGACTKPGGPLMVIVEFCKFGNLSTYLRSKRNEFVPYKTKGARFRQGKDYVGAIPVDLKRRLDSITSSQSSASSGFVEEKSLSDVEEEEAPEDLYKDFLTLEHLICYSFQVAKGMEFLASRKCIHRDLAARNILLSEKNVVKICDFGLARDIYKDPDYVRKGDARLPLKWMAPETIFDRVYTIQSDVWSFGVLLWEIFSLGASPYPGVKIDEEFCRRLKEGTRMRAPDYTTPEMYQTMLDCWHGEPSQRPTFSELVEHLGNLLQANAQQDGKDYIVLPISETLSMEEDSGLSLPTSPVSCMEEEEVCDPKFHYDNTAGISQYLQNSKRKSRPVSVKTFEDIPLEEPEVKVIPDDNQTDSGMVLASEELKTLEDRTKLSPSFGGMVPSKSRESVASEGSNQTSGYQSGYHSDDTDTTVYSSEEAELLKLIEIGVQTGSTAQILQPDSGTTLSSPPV
Procedure, shortened: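 Reaction with 3 nM VEGFR2, 2 μM Tyr1 peptide and 100 μM ATP in HEPES pH 7.5/MgCl2/EGTA/BRIJ-35, 1% DMSO, 60 min at room temperature; development reagent then 60 min at 23° C. Compounds tested at 11 threefold dilutions, 10 μM–0.17 nM final, in duplicate; IC50 from 4-parameter fit of inhibition.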

FGFR1 = target: T3, FGFR1 (Homo sapiens, UniProt P11362); test: Z'-LYTE in vitro enzyme activity assay, FGFR1; type: biochemical; details: 25 μM ATP, 60 minutes, room temperature; read-out: IC50 detected by Z'-LYTE, FGFR1
T3 construct: purchased Life technology
T3 sequence (P11362 22-822): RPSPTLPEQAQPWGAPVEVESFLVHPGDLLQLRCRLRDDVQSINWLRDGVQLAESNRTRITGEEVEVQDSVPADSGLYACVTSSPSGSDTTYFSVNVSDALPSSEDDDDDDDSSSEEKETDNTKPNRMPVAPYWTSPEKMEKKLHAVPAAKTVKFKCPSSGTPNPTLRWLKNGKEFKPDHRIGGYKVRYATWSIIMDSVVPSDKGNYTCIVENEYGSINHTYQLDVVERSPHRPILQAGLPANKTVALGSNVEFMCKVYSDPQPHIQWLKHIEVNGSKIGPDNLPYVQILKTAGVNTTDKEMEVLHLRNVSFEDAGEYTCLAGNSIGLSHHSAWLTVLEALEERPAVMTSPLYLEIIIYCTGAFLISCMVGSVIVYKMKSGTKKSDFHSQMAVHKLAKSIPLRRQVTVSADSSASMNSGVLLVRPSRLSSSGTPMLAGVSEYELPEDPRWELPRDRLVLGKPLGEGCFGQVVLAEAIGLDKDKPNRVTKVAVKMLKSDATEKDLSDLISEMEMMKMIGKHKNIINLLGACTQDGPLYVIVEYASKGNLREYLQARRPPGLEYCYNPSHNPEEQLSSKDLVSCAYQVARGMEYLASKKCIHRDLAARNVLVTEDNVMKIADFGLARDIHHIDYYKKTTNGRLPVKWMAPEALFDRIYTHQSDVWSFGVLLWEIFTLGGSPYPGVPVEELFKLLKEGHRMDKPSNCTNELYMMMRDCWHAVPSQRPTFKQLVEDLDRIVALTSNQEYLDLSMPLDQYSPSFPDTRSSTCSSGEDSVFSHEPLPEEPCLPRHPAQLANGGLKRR
Procedure, shortened: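 Z′-LYTE FRET assay with 1 nM FGFR1, 2 μM Tyr4 peptide and 25 μM ATP in HEPES pH 7.5 with Mg/Mn, 60 min at room temperature, then development 60 min at 23 °C. Compounds tested at 11 concentrations from 10 μM to 0.17 nM in 1% DMSO. IC50 from 4-parameter fit of inhibition.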

HUVEC = test: CellTiter-Glo luminescent cell viability assay, HUVEC stimulated with hVEGF-165; type: cell-based; details: Homo sapiens, hVEGF-165 20 ng/ml, 72 hours, read-out: IC50 detected by CellTiter-Glo, HUVEC
Protocol: The intracellular ATP changes were measured by CellTiter-Glo® Luminescent Cell Viability Assay. The IC50 value of the compounds was used as an index to evaluate the inhibitory effect of the compounds on HUVEC in vitro.
HUVEC cell line (ATCC), EGM-2 BulletKit (Lonza), hVEGF-165 (Cell Signaling), trypsin (Invitrogen), DPBS (Hyclone), 384 cell plate (Greiner), 384 compound plate (Greiner), CO2 incubator (Thermo), centrifuge (Eppendorf), Vi-cell cell counter (Beckman Coulter), Bravo Automatic Liquid Workstation (Agilent), Envision (Perkin Elmer)
B: Cell plating: HUVEC cells were resuspended with starved medium (only containing 2% FBS and 0.1% GA-1000) and diluted to a concentration of 20,000/mL. The diluted cells were added to a 384 plate (Greiner), 50 μl per well. The cell plates were placed in a 37° C., 5% CO2 incubator overnight.
C: Drug addition: the test compounds were diluted 4 times to obtain a total of 10 doses at a final concentration of 10 uM to 0.038 nM, two parallel wells. The middle plate was added with 47.6 uL of starved medium per well. 2.4 μl of compounds was transferred from a gradient dilution compound plate to a middle plate and mixed well. 5 μl of liquid was transferred from the middle plate to a cell plate. Incubate for 1 hour at 37° C. in a 5% CO2 incubator, 5 μl of starved medium containing hVEGF-165 (the final concentration was 20 ng/ml) and Heparin (the final concentration was 1 ng/m) were added and incubated at 37° C. in a 5% CO2 incubator for 72 hours.
D: After 72 hours, 30 μl of assay reagents was added and incubated at room temperature for 10-30 minutes, Envision was used to read the plate.
The reading was converted into suppression rate (%) (Max−Sample)/(Max−Min)*100%. Parameter curve fitting (Model 205 in XLFIT5, iDBS) was used to measure to obtain IC50 data.

| SMILES | IC50 (PDGFRB) [nM] | IC50 (VEGFR2) [nM] | IC50 (FGFR1) [nM] | TGI % (last administration) (Calu 6 Transplant model; 100 mg/kg) [%] | IC50 (HUVEC) [nM] | TGI % (last administration) (Calu 6 Transplant model; 10 mg/kg) [%] | TGI % (last administration) (Calu 6 Transplant model; 50 mg/kg) [%] |
| --- | --- | --- | --- | --- | --- | --- | --- |
| [2H]C([2H])([2H])NC(=O)c1coc2cc(Oc3ccnc4cc(OC)c(C(N)=O)cc34)ccc12 [Example 200] | < 50 | < 50 | 50 to 200 | 59 | < 100 |  |  |
| COc1cc2nccc(Oc3ccc(NC(=S)NCC4CC4)c(Cl)c3)c2cc1C(N)=O [Example 59] | 50 to 200 | < 50 | 200 to 1000 |  | 100 to 1000 |  |  |
| Cn1cnc(-c2ccc3c(Oc4ccc(NC(=O)NC5CC5)c(Cl)c4F)ccnc3c2)c1 [Example 214] | 50 to 200 | < 50 | < 50 |  | < 100 |  |  |
| COc1cc2nccc(Oc3ccc(NC(=S)N4CC[C@H](F)C4)c(Cl)c3F)c2cc1C(N)=O [Example 103] | 200 to 1000 | < 50 | 50 to 200 |  | 100 to 1000 |  |  |
| CNC(=S)Nc1ccc(Oc2ccnc3cc(OC)c(C(N)=O)cc23)cc1Cl [Example 28] | < 50 | < 50 | 50 to 200 |  | < 100 |  |  |
| COc1cc2nccc(Oc3ccc(NC(=S)N(C)C)c(Cl)c3)c2cc1C(N)=O [Example 55] | 200 to 1000 | 50 to 200 | 50 to 200 |  | 100 to 1000 |  |  |
| COc1cc2nccc(Oc3ccc(NC(=S)NCC(F)(F)F)c(Cl)c3)c2cc1C(N)=O [Example 16] | 50 to 200 | < 50 | 200 to 1000 |  | < 100 |  |  |
| COc1cc2nccc(Oc3ccc(NC(=S)N4CC(F)(F)C4)c(Cl)c3F)c2cc1C(N)=O [Example 95] | 50 to 200 | < 50 | 50 to 200 |  | 100 to 1000 |  |  |
| COc1cc2nccc(Oc3ccc(NC(=S)N4CC(F)C4)c(Cl)c3F)c2cc1C(N)=O [Example 123] | 50 to 200 | < 50 | < 50 |  | 100 to 1000 |  |  |
| CCNC(=S)Nc1ccc(Oc2ccnc3cc(OC)c(C(N)=O)cc23)c(F)c1Cl [Example 124] | < 50 | < 50 | < 50 |  | < 100 |  |  |

Further lines, with some results ahead:

| IC50 (PDGFRB) [nM] | IC50 (VEGFR2) [nM] | IC50 (FGFR1) [nM] | SMILES | TGI % (last administration) (Calu 6 Transplant model; 100 mg/kg) [%] | IC50 (HUVEC) [nM] | TGI % (last administration) (Calu 6 Transplant model; 10 mg/kg) [%] | TGI % (last administration) (Calu 6 Transplant model; 50 mg/kg) [%] |
| --- | --- | --- | --- | --- | --- | --- | --- |
| 50 to 200 | < 50 | < 50 | CCNC(=O)Nc1ccc(Oc2ccnc3cc(-c4cn(C)cn4)ccc23)c(F)c1Cl [Example 216] |  | < 100 | 83 |  |
| 50 to 200 | < 50 | 200 to 1000 | COc1cc2nccc(Oc3ccc(NC(=S)NC4CC4)c(Cl)c3)c2cc1C(=O)NO [Example 50] |  | 100 to 1000 |  |  |
| < 50 | < 50 | 50 to 200 | COc1cc2nccc(Oc3ccc(NC(=S)NC4CC4)c(Cl)c3F)c2cc1C(N)=O [Example 78] |  | < 100 |  |  |
| 50 to 200 | < 50 | < 50 | Cn1cnc(-c2ccc3c(Oc4ccc5c(C(=O)NC6CC6)coc5c4)ccnc3c2)c1 [Example 223] |  | < 100 |  |  |
| < 50 | < 50 | 200 to 1000 | COc1cc2nccc(Oc3ccc(NC(=S)Nc4cnn(C(C)C)c4)c(Cl)c3)c2cc1C(N)=O [Example 70] |  | < 100 |  |  |
| 50 to 200 | < 50 | < 50 | COc1cc2nccc(Oc3ccc(NC(=S)N4CCCC4)c(Cl)c3F)c2cc1C(N)=O [Example 98] |  | 100 to 1000 |  |  |
| < 50 | 50 to 200 | 50 to 200 | [2H]C([2H])([2H])NC(=O)c1coc2cc(Oc3ccnc4cc(OC)c(C(N)=O)cc34)c(F)cc12 [Example 209] |  | 100 to 1000 |  |  |
| 50 to 200 | < 50 | 200 to 1000 | COc1cc2nccc(Oc3ccc(NC(=S)NC4CC4)c(Cl)c3)c2cc1C(N)=O [Example 1] |  | < 100 |  | 57 |
| 50 to 200 | < 50 | 50 to 200 | COc1cc2nccc(Oc3ccc(NC(=S)NCC(F)F)c(Cl)c3)c2cc1C(N)=O [Example 12] |  | < 100 |  |  |
| 50 to 200 | < 50 | < 50 | CNC(=O)c1coc2cc(Oc3ccnc4cc(-c5cn(C)cn5)ccc34)ccc12 [Example 225] |  | < 100 |  |  |
| < 50 | < 50 | 200 to 1000 | COc1cc2nccc(Oc3cc4occ(C(=O)NC5CC5)c4cc3F)c2cc1C(N)=O [Example 207] |  | 100 to 1000 |  |  |
